Experimental data as given in patent US10292998B1, “Compositions and methods for prevention and treatment of eye infections” (priority 2018, dated 2019).

Columns and labels:
[1] = system: bacteria on the surface of the eyeball; assay: Bacterial count on the surface of the eyeball after eye drops of PVP-I/NAC combinations; assay type: in vivo, human; conditions: NAC alone
From the text: The combinations were then applied, with one or more drops of the composition, each between 7 and 30 microliters in total volume, applied by syringe to the eye of a patient over a period of between 30 and 180 seconds. […] In comparison, experiments using NAC alone was ineffective in lowering bacterial count.

[2] = system: bacterial and viral infections; assay: Treatment and prevention of eye infections, summary of the experiments; assay type: in vivo, human
From the text: Experiments have determined that PVP-I can be mixed with N-acetylcysteine (NAC), preferably in combination with an aqueous solution such as saline or water for improved lubrication, to form a medical eye drop treatment, which has the unexpected result of greatly reducing the bacteria count while simultaneously maintaining the pain at a tolerable level, or in some cases reducing the pain to a non-perceptible level. The active treatment components are preferably mixed by stirring at room temperature (that is, roughly 15-25° C.) and added to an aqueous solution. The PVP-I concentration of the mixture can be as low as 1.25% by volume of the treatment composition without substantially reducing its effectiveness at preventing eye infections of bacterial, viral, and fungal varieties.
Experiments were performed with differing ratios of PVP-I, NAC, and aqueous solution in combination. The PVP-I percentage by volume was varied between 0.5% and 80%, and the NAC percentage by volume was varied between 0.5% and 10%. The combinations were then applied, with one or more drops of the composition, each between 7 and 30 microliters in total volume, applied by syringe to the eye of a patient over a period of between 30 and 180 seconds.
An average eye drop contains 35 microliters, but the space between the human eye and the eyelid can only contain, in an average adult human, approximately 7 microliters of liquid. A human instinctively blinks upon addition of an eye drop to the eye, thereby forcing out most of the eye drop. As a result, only a fraction of a first eye drop will remain in the eye to mix with a second eye drop. […] As a result, the composition described above is not achieved.

[3] = system: viral conjunctivitis; conditions: cited from earlier work
[4] = cited from earlier work
[5] = system: bacteria on the eye surface; conditions: 0.5%-0.7% PVP-I solution by volume dripped into the eye over 30 seconds, repeated every 90 seconds four times; cited from earlier work

Molecule | lowering bacterial count [1] | treating or preventing infections ([2]; NAC without PVP-I) | discomfort ([2]; summary of experiments) | treating and preventing bacterial infections ([2]; summary of experiments) | treating viral infections ([2]; summary of experiments) | treating pre-existing infections, especially viral infections such as viral conjunctivitis ([3]; PVP-I without NAC) | effect on viral conjunctivitis infections ([3]; solution of 1.25% PVP-I by volume without NAC, previous study) | tolerability on the eye ([4]; 1.25% or 2.5% PVP-I concentrations) | pain during application ([4]; 10% PVP-I concentration by volume, surface of the eye) | pain on application to the human eye ([4]; PVP-I especially at concentrations greater than 2.5% by volume) | reduction of bacteria on the eye surface [5]
CC(=O)N[C@@H](CS)C(=O)O [NAC, N-acetylcysteine] | ineffective | ineffective |  |  |  |  |  |  |  |  | 
Povidone-iodine [PVP-I] |  |  | highly uncomfortable | effective | ineffective | largely ineffective | no significant effect | tolerable but still highly irritating | intolerable | extreme immediate pain and a continuing burning sensation | 99.9%
